Source: patent US9650405B2, “Modified sophorolipids as oil solubilizing agents” (Polytechnic Institute of New York University, priority 2010, dated 2017)
Where two headings read alike, the source gives them in different places.

What was measured:
[1] = Emulsion stability based on phase separation; assay type: physicochemical; conditions: for emulsion layer percentage: paraffin oil/water 5/5, 2%-by-weight emulsifier, after 24 hours at 25° C.
Description: The emulsion was obtained by homogenizing the oil and water mixture and was allowed to settle at room temperature for 24 hours. […] Then, this mixture was homogenized at 13,000 rpm for 2 minutes. Thereafter, the resulting emulsion was left unagitated at 25° C. for 24 hours. Surfactants which give a larger emulsion phase are denoted as having higher emulsion effectiveness (Process Safety and Environment protection, 2005, 83, 38-46). […] Thus, unexpectedly, that longer alkyl chains, at least up to butyl and hexyl, provided improved interfacial stability at the paraffin oil/water interface. […] Apparently, ester bonds of SL-esters are less disruptive to organization at the oil water interface than amide bonds of SL-amides. […] The acidic SL (3) gave an 8% emulsion layer, much lower than the MSL examples given herein. Similarly, the natural SL (1) mixture gave a 10% emulsion layer. This performance is also far below that of SL-butyl amide (24), hexyl amide (25), butyl ester (8) and hexyl ester (16).
After homogenized at 13,000 rpm for 2 minutes, the emulsions were kept at room temperature and separation of the respective oil, emulsion and water layers was recorded for up to 1 month.

[2] = Emulsion type: dilution test and oil soluble dye staining; assay type: physicochemical; conditions: for emulsion type by Oil Red O staining: 2%-by-weight relative to water phase, oil/water 5/5 and 7/3
Description: In this test the emulsion is diluted either with oil (O) or water (W). If the emulsion is O/W type and it is diluted with water, it will remain stable as water is the dispersion medium. However, if the emulsion is O/W type and it is diluted with oil, the emulsion will break as oil and water are not miscible with each other. […] Emulsions of the O/W type have separated layers after dilution with pure oil but form a homogenous phase when diluted by water. Unless otherwise specified, the emulsion type formed by MSLs were oil in water.
In FIG. 13B, the tube on the left was diluted with 1 mL of oil whereas the tube on right was diluted with water. Visual observation of the tubes in FIG. 13B supports that the emulsions formed are indeed O/W emulsions.
Oil Red O was applied as an oil soluble dye and emerald green as water soluble dye in the process of emulsion preparation. Observations of emulsions were made before and after staining under optical microscope at 400× magnification (FIG. 14). […] The formation of O/W emulsions and not W/O emulsions with this set of MSL compounds would not be obvious to one skilled in the art. We believe that O/W emulsions are formed by this set of MSLs due to that large sophorose polar head groups requires relatively more space than the lipid tails and, therefore self-assemble into spherical type structures where disaccharide groups are locating outside the droplets.

[3] = Crude oil clearing/displacement activity; conditions: 20 μL of 1 mg/mL solution
Description: Oil cleaning assays were performed using Louisiana Crude, Arabian Light Crude, and Prudhoe Bay Crude as the oil phase. In one study, the oil clearing/displacement activity of MSLs were assessed using a crude oil layer on top of sea water in order to simulate oil spill type conditions. Sea water (20 mL) was transferred to plastic Petri dishes and 20 μL of a crude oil type was added on top of the water to create an oil layer. Subsequently, a 20 μL aliquot of MSL solution (1 mg/mL) was added dropwise to the top of the oil layer. The instantaneous formation of an oil clearing zone as well as the diameter of the clearing zone was determined as a function of the dispersant used. […] Furthermore, the oil displacement activity of SL-ethyl ester and SL-butyl ester was slightly higher than Triton-X-100 for Arabian Light crude.

[4] = Solubility of MSLs in water
Excerpt: If the material precipitates upon cooling or was to some extent insoluble, the insoluble material was separated by filtration, dried and weighed.

[5] = SL-esters; from earlier publication in Colloids and surfaces, 2004, 240, 75; cited from earlier work
[6] = Solubility in distilled water without additives, compounds alone and mixed; conditions: without any additives
[7] = Crude oil emulsification activity (turbidity at 610 nm); conditions: emulsifier 1 mg/mL
Description: Emulsification activity was assessed using Louisiana Crude, Arabian Light Crude, and Prudhoe Bay Crude as the oil phase. A 2 mL solution with emulsifier concentration of 1 mg/mL was prepared. A crude oil (10 mg) was added to the emulsifier aqueous solution, the mixture was vortexed for one minute and the emulsified mixture was allowed to stand for 20 minutes. Emulsification activity was determined by measuring turbidity of the emulsion mixture in a spectrophotometer at 610 nm. The results obtained using SL-ethyl ester, SL-butyl ester, the natural sophorolipid mixture and Triton X-100 as emulsifiers are expressed as D610 and are listed in Table 8. […] Furthermore, a remarkable improvement in emulsification activity was obtained for SL-butyl ester relative to the natural sophorolipid mixture. These comparative results for emulsification of Louisiana Crude, Arabian Light Crude, and Prudhoe Bay Crude oil phase could not be anticipated by one skilled in the art.

[8] = Surface tension versus surfactant concentration: CMC and minimum surface tension; assay type: physicochemical; conditions: SL-amides; 25° C.
Description: The surface tension change with the increase of surfactant concentration of a series of SL amides was measured at 25° C. and the results are shown in Table 2. CMC and minimum surface tension (MST) decrease as the chain length of the n-alkyl amide moiety increase. […] This trend can be explained by the increased hydrophobicity of the surfactant hydrophobic tail with increased chain length of the n-alkyl amide.
The relation of CMC within a homologous series of surfactants and the carbon chain length (straight-chain), n, is usually described as: Log (CMC)=A−Bn (1)
Where A and B are constants specific to the series and n is the carbon on the hydrophobic chains. It was reported that the CMC of alkyl-β-D-glucoside decreased by ⅓ for each additional CH2 group (L. Zhang. D.E.S. Thesis, Columbia University). For a series of SL-esters prepared from n-alkanols of varying chain length, the CMC decreased by ½ per additional CH2 group (L. Zhang Colloid Surface, 240, 2004, 75).

[9] = Emulsion viscosity measurement; assay type: physicochemical; conditions: oil/water 7/3, 1% MSL, shear rate 1 S^−1
Description: Viscosity was measured at 25° C. with increasing shear rate from 1 S^−1 to 750 S^−1. The viscosity change was monitored for aging times up to 3 months. For all samples, the paraffin oil/water ratio is 7/3 and the surfactant concentrations studied were 0.5%, 1% to 2%-by-weight relative to the oil phase. FIG. 19 presents the viscosity change with shear rate for different aging times. […] The emulsion tested was prepared using 2%-by-weight SL-butyl ester relative to paraffin oil. Viscosity decreases with increased shear rate implying the emulsion follows shear shinning. Furthermore, viscosity decreased with increased storage time. […] This change is consistent with the small increase in oil phase particle size (1.7 to 2.1 μm) with aging from 1 day to 3-months (Tables 4 and 5).
Values of ηlow decreased with storage time to various extents that are dependent on the MSL compound used to stabilize the emulsion. […] The relative ability of different MSL structures to stabilize emulsions and thereby decrease the extent of decrease in viscosity as a function of aging time would not be predictable by one skilled in the art. The behavior as a function of MSL structure is related to emulsion dispersed phase droplet size. That is, the smaller the change in droplet size, the less decrease in emulsion viscosity occurs with increased aging time. Smaller changes in droplet size reflects the ability of the emulsifier to better stabilize particles. For example, the viscosity of the emulsion stabilized by SL-butyl amide decreased by 65% (from 344 Pas to 120 Pas) whereas the viscosity of the emulsion stabilized by SL-hexyl ester decreased by 20% (from 457 Pas to […]).
The viscosity was measured 24 hours after emulsion preparation. The viscosity increased with increasing surfactant concentration. Such behavior could not have been predicted by one skilled in the art without the teaching provided in this disclosure. The extent of viscosity change with surfactant concentration is related to the interfacial free energy at the droplet surface that reduces with the increase of surfactant concentration.

[10] = Emulsion droplet size distribution, Coulter LS 230 analyzer; assay type: physicochemical; conditions: paraffin oil-to-water 7:3 v/v, 25° C.
Description: Emulsified oil droplet size (average and standard deviation) was measured after suitable dilution of the emulsion phase using a Coulter LS 230 analyzer. […] Relative to natural and lactonic SL, selected MSLs show improved properties as emulsifiers on paraffin oil.
After being aged for 3-months, emulsified oil droplet size (average and standard deviation) was measured after suitable dilution of the emulsion phase using a Coulter LS 230 analyzer and the results are listed in Table 5. […] However, increasing the surfactant concentration from 1 to 2% did result in substantially smaller emulsion-phase droplet sizes. […] This is evidence that MSL's can stabilize oil phases greatly decreasing their tendency to undergo coalescence. […] It follows that the results of 3-month aging studies support the utility of selected MSLs for formation and stabilization of oil-in-water emulsions of paraffin oil phases. One skilled in the art would expect that the ability of these MSLs to stabilize paraffin oil phases teaches that they would also stabilize oil phases of similar structure.

[11] = Arabian Light Crude on sea water

Structure (SMILES)	emulsion layer percentage [1]	emulsion type by Oil Red O staining [2]	Oil displacement activity (diameter of the clearing zone) [3, 11]	Oil displacement activity (diameter of the clearing zone) ([3]; Louisiana Crude on sea water)	Oil displacement activity (diameter of the clearing zone) ([3]; Prudhoe Bay Crude on sea water)	Solubility ([4]; distilled water, 25° C.)	CMC Range [5]	MST (minimum surface tension) [5]	solubility in distilled water [6]	Solubility [4]	CMC Range [8]	MST (minimum surface tension) [8]	Average droplet size ([10]; 0.5 weight %, 24 hours)	Average droplet size ([10]; 0.5 weight %, aged 3-months)	Average droplet size ([10]; 1 weight %, 24 hours)	Average droplet size ([10]; 1 weight %, aged 3-months)	Average droplet size ([10]; 2 weight %, 24 hours)	Average droplet size ([10]; 2 weight %, aged 3-months)	also measured
COC(=O)CCCCCCCC=CCCCCCCC(C)OC1OC(CO)C(O)C(O)C1OC1OC(CO)C(O)C(O)C1O (stereo not drawn) [Compound 6, SL-Methyl Ester]	no emulsion layer was observed	O/W	5.5 ± 0.1 cm	6.5 ± 0.4 cm	6.9 ± 0.1 cm	<1000 µg/mL	95-100 10^−6M	38.4 mN/m	less than 1 mg/L										Solubility ([4]; distilled water, 25° C., listed as methyl ester): < 1000 µg/mL
CCOC(=O)CCCCCCCC=CCCCCCCC(C)OC1OC(CO)C(O)C(O)C1OC1OC(CO)C(O)C(O)C1O (stereo not drawn) [Compound 7, SL-Ethyl Ester]	no emulsion layer was observed	O/W	6.5 ± 0.2 cm	6.3 ± 0.9 cm	6.6 ± 0.7 cm		36-40 10^−6M	37.5 mN/m	less than 1 mg/L	<3000 µg/mL									Emulsification activity (D610) ([7]; Arabian Crude): 0.91; Emulsification activity (D610) ([7]; Louisiana Crude): 0.42; Emulsification activity (D610) ([7]; Prudhoe Crude): 0.32
CNC(=O)CCCCCCCC=CCCCCCCC(C)OC1OC(CO)C(O)C(O)C1OC1OC(CO)C(O)C(O)C1O (stereo not drawn) [Compound 22, SL-Methyl Amide]	no emulsion layer was observed	O/W									650-670 10^−6M	43.3 mN/m							
CCNC(=O)CCCCCCCC=CCCCCCCC(C)OC1OC(CO)C(O)C(O)C1OC1OC(CO)C(O)C(O)C1O (stereo not drawn) [Compound 23, SL-Ethyl Amide]	no emulsion layer was observed	O/W								>40000 µg/mL	300-310 10^−6M	40.9 mN/m							
CCCCNC(=O)CCCCCCCC=CCCCCCCC(C)OC1OC(CO)C(O)C(O)C1OC1OC(CO)C(O)C(O)C1O (stereo not drawn) [Compound 24, SL-Butyl Amide]	20%	O/W								>40000 µg/mL	45-50 10^−6M	38.7 mN/m	3.0 ± 0.2 μm	6.3 ± 1.0 μm	2.5 ± 0.2 μm	4.7 ± 0.8 μm	1.9 ± 0.1 μm	3.0 ± 0.4 μm	emulsion layer in 3 days ([1]; oil/water 5/5, 2%-by-weight, 3 days): not observed in 3 days; low shear emulsion viscosity, after aging period [9]: 120 Pas; low shear emulsion viscosity, before aging [9]: 344 Pas; viscosity decrease over the aging period [9]: 65%
CCCCCCNC(=O)CCCCCCCC=CCCCCCCC(C)OC1OC(CO)C(O)C(O)C1OC1OC(CO)C(O)C(O)C1O (stereo not drawn) [Compound 25, SL-Hexyl Amide]	60%	O/W				<11000 µg/mL					29-32 10^−6M	36.5 mN/m	2.7 ± 0.4 μm	4.0 ± 0.4 μm	2.7 ± 0.2 μm	3.7 ± 0.7 μm	1.7 ± 0.1 μm	2.2 ± 0.5 μm	emulsion layer volume-%, one month ([1]; oil/water 5/5, 2%-by-weight, one month at room temperature): 10%; emulsion layer volume-%, start ([1]; oil/water 5/5, 2%-by-weight, start of aging): 65%; emulsion type by dilution test ([2]; 2 weight % emulsifier, water/oil ratio 5/5, paraffin): O/W emulsions
